Measurements published in US7625713B2, “Process for identifying a ligand that binds to the NEP binding site for the SMR1 pentapeptide” (Institut Pasteur, priority 2000, dated 2009).
Where a SMILES comes first, the peptide text is derived from it.

Biological target: T1, NEP (Rattus norvegicus, UniProt P07861)
T1 construct: incubations of membrane and fresh tissue slice preparations from nervous tissues; from tissue; host or cells: dorsal spinal cord of male Wistar rats (fresh slices or 100 000 x g membrane fraction)
T1 sequence (P07861 1-750): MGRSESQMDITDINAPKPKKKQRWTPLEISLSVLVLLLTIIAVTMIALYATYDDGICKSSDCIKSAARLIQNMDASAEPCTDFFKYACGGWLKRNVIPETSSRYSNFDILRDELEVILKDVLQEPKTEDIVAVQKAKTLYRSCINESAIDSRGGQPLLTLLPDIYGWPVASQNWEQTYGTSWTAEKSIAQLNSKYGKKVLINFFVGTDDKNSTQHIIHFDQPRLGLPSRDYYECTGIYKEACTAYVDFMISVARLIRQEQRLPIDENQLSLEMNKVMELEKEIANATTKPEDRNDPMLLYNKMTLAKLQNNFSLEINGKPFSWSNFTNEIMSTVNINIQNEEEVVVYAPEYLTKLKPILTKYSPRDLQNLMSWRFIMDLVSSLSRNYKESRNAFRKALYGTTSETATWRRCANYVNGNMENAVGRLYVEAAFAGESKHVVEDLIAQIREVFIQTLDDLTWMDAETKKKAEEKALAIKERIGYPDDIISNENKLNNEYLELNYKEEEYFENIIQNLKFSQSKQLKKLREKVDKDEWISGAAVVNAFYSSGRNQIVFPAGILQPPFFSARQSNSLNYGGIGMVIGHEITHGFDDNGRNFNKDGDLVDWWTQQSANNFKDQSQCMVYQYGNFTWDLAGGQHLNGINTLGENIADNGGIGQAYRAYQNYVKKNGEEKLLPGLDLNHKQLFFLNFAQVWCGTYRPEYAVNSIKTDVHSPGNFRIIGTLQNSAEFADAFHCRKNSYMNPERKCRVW
Assay: Met-enkephalinase activity of rat spinal cord slices, Met-enkephalin RIA
Format: biochemical
Conditions: 10 μM, fresh spinal cord tissue, 20 min at 25° C.
Method: FIG. 2-A: […] The organs are rapidly removed, dissected on ice, freed of nerve fibers and of adipose tissues and then washed in cold oxygenated glucose- and bicarbonate-containing Krebs Ringer (KRBG) solution, whose composition is the following: 120 mM NaCl-5 mM KCl-1.2 mM KH2PO4-27.5 mM NaHCO3-2.6 mM CaCl2-0.67 mM MgSO4-5.9 mM glucose. The slices of tissues are prepared either manually with the aid of a scalpel (1-2 mm thick), or mechanically with the aid of a “Tissue Chopper” (1 mm thick). Slices are then dispersed into reaction tubes where they are subjected to three successive washes in ice-cold oxygenated KRBG. […] For the experiments of analysis of the NEP peptidase activity, an ex vivo model using incubations of membrane and fresh tissue slice preparations from nervous tissues that are known to be appropriate for exploring NEP peptidase activity: i.e. the dorsal zone of rat spinal cord, was first developed. The metabolism rate of the NEP-sensitive peptides was measured using the both NEP substrates involved in the signaling of the nociceptive response: the neuropeptides Met-enkephalin and Substance P. […] (NEN, 12.5-25 nM) were used. The objective was to measure the NEP-specific endoproteolysis of these substrates. […] Furthermore, for studying the functional role of […] NO: 2), the reaction was carried out in the presence of the SMR1-peptide alone or combined with specific inhibitors of membrane peptidases which could inactivate the […] […] Herein, a competitive RIA system has been used: the quantity of radioactive antigen bound to the antibody decreases in a manner inversely proportional to the quantity of antigen contained in the standard solution or in the sample. […] The activity of enkephalinase NEP is monitored by quantification of the disappearance of the initial Met-enkephalin substrate. […] The radiolabeled antigen is iodinated Met-enkephalin (^125I-Met-Enk enkephalin) with a specific radioactivity estimated at 3000 Ci/mmol. […] After centrifugation, the bound radioactivity of the precipitate is quantified using a gamma-spectrometer.

SMILES: N=C(N)NCCC[C@H](NC(=O)[C@@H]1CCCN1C(=O)[C@H](CC(N)=O)NC(=O)[C@H](Cc1c[nH]cn1)NC(=O)[C@@H](N)CCC(N)=O)C(=O)O [sialorphin, Gln-His-Asn-Pro-Arg] (H-QHNPR-OH; N-terminus and C-terminus assumed)
- protection of Met-enkephalin from degradation: 96%
